From the supplement of paper PMC10307832

Legend:
Experiment in all cases: relative viability (nuclei count vs DMSO), 5 days (fraction); higher = more cells survive
KN-93 + Tozasertib = compound: CN(C/C=C/C1=CC=C(C=C1)Cl)CC2=CC=CC=C2N(CCO)S(=O)(=O)C3=CC=C(C=C3)OC [KN-93] + Cc1cc(Nc2cc(N3CCN(C)CC3)nc(Sc3ccc(NC(=O)C4CC4)cc3)n2)n[nH]1 [Tozasertib] (partner 0.1 µM)
Summary of the method: (§1)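 Cells from lung cancer lines were seeded into 1536-well plates and, one day later, dosed by pin tool. Treatments were either a single drug or a fixed dose of an anchor drug with five library-drug doses (not always all listed) in √10 steps. After 5 days, nuclei were stained in a one-step fixation (final 0.05% Triton X-100, 1% formaldehyde, 1 ug/ml Hoechst) and counted on 4× images, and relative viability is the treated-to-vehicle nuclei ratio, as the median of duplicate plates.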

KN-93 + Luminespib = compound: CN(C/C=C/C1=CC=C(C=C1)Cl)CC2=CC=CC=C2N(CCO)S(=O)(=O)C3=CC=C(C=C3)OC [KN-93] + CCNC(=O)c1noc(-c2cc(C(C)C)c(O)cc2O)c1-c1ccc(CN2CCOCC2)cc1 [Luminespib] (partner 0.01 µM)
Summary of the method: as §1

KN-93 + Phenformin = compound: CN(C/C=C/C1=CC=C(C=C1)Cl)CC2=CC=CC=C2N(CCO)S(=O)(=O)C3=CC=C(C=C3)OC [KN-93] + N=C(N)NC(=N)NCCc1ccccc1 [Phenformin] (partner 250 µM)
Summary of the method: as §1

KN-93 + OSI-027 = compound: CN(C/C=C/C1=CC=C(C=C1)Cl)CC2=CC=CC=C2N(CCO)S(=O)(=O)C3=CC=C(C=C3)OC [KN-93] + COc1cccc2cc(-c3nc([C@H]4CC[C@H](C(=O)O)CC4)n4ncnc(N)c34)[nH]c12 [OSI-027] (partner 0.5 µM)
Summary of the method: as §1

KN-93 + Foretinib = compound: CN(C/C=C/C1=CC=C(C=C1)Cl)CC2=CC=CC=C2N(CCO)S(=O)(=O)C3=CC=C(C=C3)OC [KN-93] + COc1cc2c(Oc3ccc(NC(=O)C4(C(=O)Nc5ccc(F)cc5)CC4)cc3F)ccnc2cc1OCCCN1CCOCC1 [Foretinib] (partner 0.25 µM)
Summary of the method: as §1

KN-93 + Dasatinib = compound: CN(C/C=C/C1=CC=C(C=C1)Cl)CC2=CC=CC=C2N(CCO)S(=O)(=O)C3=CC=C(C=C3)OC [KN-93] + Cc1nc(Nc2ncc(C(=O)Nc3c(C)cccc3Cl)s2)cc(N2CCN(CCO)CC2)n1 [Dasatinib] (partner 0.075 µM)
Summary of the method: as §1

KN-93 = compound: CN(C/C=C/C1=CC=C(C=C1)Cl)CC2=CC=CC=C2N(CCO)S(=O)(=O)C3=CC=C(C=C3)OC [KN-93]
Summary of the method: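 Hoechst staining, done together with fixation and permeabilisation, marked nuclei for 4× imaging and MetaXpress counting. This followed 5 days without medium change after lung cancer cell lines, kept overnight at 37 °C in 1536-well plates, were pinned with five library-drug doses (not always all listed) spaced by √10 on vehicle-anchored plates. Viability is the ratio of treated-well to vehicle-well nuclei, expressed as a median across plates. Plates passed only at control CV below 25% with at least one doubling.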

KN-93 + Trametinib = compound: CN(C/C=C/C1=CC=C(C=C1)Cl)CC2=CC=CC=C2N(CCO)S(=O)(=O)C3=CC=C(C=C3)OC [KN-93] + CC(=O)Nc1cccc(-n2c(=O)n(C3CC3)c(=O)c3c(Nc4ccc(I)cc4F)n(C)c(=O)c(C)c32)c1 [Trametinib] (partner 0.02 µM)
Summary of the method: as §1

KN-93 + Decitabine = compound: CN(C/C=C/C1=CC=C(C=C1)Cl)CC2=CC=CC=C2N(CCO)S(=O)(=O)C3=CC=C(C=C3)OC [KN-93] + Nc1ncn([C@H]2C[C@H](O)[C@@H](CO)O2)c(=O)n1 [Decitabine] (partner 2 µM)
Summary of the method: as §1

KN-93 + AZD7762 = compound: CN(C/C=C/C1=CC=C(C=C1)Cl)CC2=CC=CC=C2N(CCO)S(=O)(=O)C3=CC=C(C=C3)OC [KN-93] + NC(=O)Nc1cc(-c2cccc(F)c2)sc1C(=O)N[C@H]1CCCNC1 [AZD7762] (partner 0.2 µM)
Summary of the method: as §1

KN-93 + Vorinostat = compound: CN(C/C=C/C1=CC=C(C=C1)Cl)CC2=CC=CC=C2N(CCO)S(=O)(=O)C3=CC=C(C=C3)OC [KN-93] + O=C(CCCCCCC(=O)Nc1ccccc1)NO [Vorinostat] (partner 1 µM)
Summary of the method: as §1

KN-93 + Pemetrexed = compound: CN(C/C=C/C1=CC=C(C=C1)Cl)CC2=CC=CC=C2N(CCO)S(=O)(=O)C3=CC=C(C=C3)OC [KN-93] + Nc1nc2[nH]cc(CCc3ccc(C(=O)N[C@@H](CCC(=O)O)C(=O)O)cc3)c2c(=O)[nH]1 [Pemetrexed] (partner 0.2 µM)
Summary of the method: as §1

KN-93 + Palbociclib = compound: CN(C/C=C/C1=CC=C(C=C1)Cl)CC2=CC=CC=C2N(CCO)S(=O)(=O)C3=CC=C(C=C3)OC [KN-93] + CC(=O)c1c(C)c2cnc(Nc3ccc(N4CCNCC4)cn3)nc2n(C2CCCC2)c1=O [Palbociclib] (partner 0.5 µM)
Summary of the method: as §1

KN-93 + Olaparib = compound: CN(C/C=C/C1=CC=C(C=C1)Cl)CC2=CC=CC=C2N(CCO)S(=O)(=O)C3=CC=C(C=C3)OC [KN-93] + O=C(c1cc(Cc2n[nH]c(=O)c3ccccc23)ccc1F)N1CCN(C(=O)C2CC2)CC1 [Olaparib] (partner 8 µM)
Summary of the method: as §1

## NCI-H1623
KN-93 + Tozasertib; first compound 0.08 µM
  relative viability: 0.445
KN-93 + Tozasertib; first compound 0.253 µM
  relative viability: 0.41
KN-93 + Tozasertib; first compound 2.53 µM
  relative viability: 0.41
KN-93 + Tozasertib; first compound 8 µM
  relative viability: 0.439
KN-93 + Luminespib; first compound 0.08 µM
  relative viability: 0.44
KN-93 + Luminespib; first compound 0.253 µM
  relative viability: 0.414
KN-93 + Luminespib; first compound 2.53 µM
  relative viability: 0.654
KN-93 + Luminespib; first compound 8 µM
  relative viability: 0.457
KN-93 + Phenformin; first compound 0.08 µM
  relative viability: 0.61
KN-93 + Phenformin; first compound 0.253 µM
  relative viability: 0.592
KN-93 + Phenformin; first compound 2.53 µM
  relative viability: 0.672
KN-93 + Phenformin; first compound 8 µM
  relative viability: 0.453
KN-93 + OSI-027; first compound 0.08 µM
  relative viability: 0.418
KN-93 + OSI-027; first compound 0.253 µM
  relative viability: 0.36
KN-93 + OSI-027; first compound 2.53 µM
  relative viability: 0.393
KN-93 + OSI-027; first compound 8 µM
  relative viability: 0.416
KN-93 + Foretinib; first compound 0.08 µM
  relative viability: 0.861
KN-93 + Foretinib; first compound 0.253 µM
  relative viability: 0.796
KN-93 + Foretinib; first compound 2.53 µM
  relative viability: 0.994
KN-93 + Foretinib; first compound 8 µM
  relative viability: 0.726
KN-93 + Dasatinib; first compound 0.08 µM
  relative viability: 0.647
KN-93 + Dasatinib; first compound 0.253 µM
  relative viability: 0.525
KN-93 + Dasatinib; first compound 2.53 µM
  relative viability: 0.536
KN-93 + Dasatinib; first compound 8 µM
  relative viability: 0.393
KN-93; 0.08 µM
  relative viability: 0.95
KN-93; 0.253 µM
  relative viability: 0.984
KN-93; 2.53 µM
  relative viability: 0.956
KN-93; 8 µM
  relative viability: 0.958

## NCI-H1648
KN-93 + Tozasertib; first compound 0.08 µM
  relative viability: 0.426
KN-93 + Tozasertib; first compound 0.253 µM
  relative viability: 0.378
KN-93 + Tozasertib; first compound 2.53 µM
  relative viability: 0.389
KN-93 + Tozasertib; first compound 8 µM
  relative viability: 0.331
KN-93 + Trametinib; first compound 0.08 µM
  relative viability: 0.403
KN-93 + Trametinib; first compound 0.253 µM
  relative viability: 0.445
KN-93 + Trametinib; first compound 2.53 µM
  relative viability: 0.381
KN-93 + Trametinib; first compound 8 µM
  relative viability: 0.407
KN-93 + Decitabine; first compound 0.08 µM
  relative viability: 0.459
KN-93 + Decitabine; first compound 0.253 µM
  relative viability: 0.45
KN-93 + Decitabine; first compound 2.53 µM
  relative viability: 0.557
KN-93 + Decitabine; first compound 8 µM
  relative viability: 0.34
KN-93 + AZD7762; first compound 0.08 µM
  relative viability: 0.647
KN-93 + AZD7762; first compound 0.253 µM
  relative viability: 0.727
KN-93 + AZD7762; first compound 2.53 µM
  relative viability: 0.82
KN-93 + AZD7762; first compound 8 µM
  relative viability: 0.663
KN-93 + OSI-027; first compound 0.08 µM
  relative viability: 0.263
KN-93 + OSI-027; first compound 0.253 µM
  relative viability: 0.254
KN-93 + OSI-027; first compound 2.53 µM
  relative viability: 0.229
KN-93 + OSI-027; first compound 8 µM
  relative viability: 0.202
KN-93 + Vorinostat; first compound 0.08 µM
  relative viability: 0.485
KN-93 + Vorinostat; first compound 0.253 µM
  relative viability: 0.423
KN-93 + Vorinostat; first compound 2.53 µM
  relative viability: 0.322
KN-93 + Vorinostat; first compound 8 µM
  relative viability: 0.807
KN-93 + Pemetrexed; first compound 0.08 µM
  relative viability: 0.717
KN-93 + Pemetrexed; first compound 0.253 µM
  relative viability: 0.874
KN-93 + Pemetrexed; first compound 2.53 µM
  relative viability: 0.788
KN-93 + Pemetrexed; first compound 8 µM
  relative viability: 0.716
KN-93 + Palbociclib; first compound 0.08 µM
  relative viability: 0.251
KN-93 + Palbociclib; first compound 0.253 µM
  relative viability: 0.259
KN-93 + Palbociclib; first compound 2.53 µM
  relative viability: 0.295
KN-93 + Palbociclib; first compound 8 µM
  relative viability: 0.291
KN-93 + Olaparib; first compound 0.08 µM
  relative viability: 0.56
KN-93 + Olaparib; first compound 0.253 µM
  relative viability: 0.724
KN-93 + Olaparib; first compound 2.53 µM
  relative viability: 0.568
KN-93 + Olaparib; first compound 8 µM
  relative viability: 0.711
KN-93; 0.08 µM
  relative viability: 0.704
KN-93; 0.253 µM
  relative viability: 0.792
KN-93; 2.53 µM
  relative viability: 0.968
KN-93; 8 µM
  relative viability: 0.526
